{"source": "patent US20210000904A1", "about": "“NOVEL USE OF MAYDIS STIGMA EXTRACT IN PROPHYLAXIS AND THERAPY OF SLEEP DISORDER” (KONKUK UNIVERSITY GLOBAL INDUSTRY-ACADEMIC COLLABORATION …, priority 2018, published 2021)", "test_system": "ICR mice", "test": "Caffeine sleep deprivation model with pentobarbital-induced sleep", "assay_type": "in vivo, mouse", "settings": "caffeine 10 mg/kg i.p., pentobarbital 42 mg/kg after 30 minutes", "data": [{"molecule": "Cn1c(=O)c2c(ncn2C)n(C)c1=O", "note": "[caffeine]", "values": [{"measurement": "sleep duration decrease compared to negative control group", "value": "1,000 seconds"}, {"measurement": "sleep onset time increase compared to negative control group", "value": "about 50 seconds"}]}]}
